Results taken from patent publication US8906935B2, “Thiazolyl- and oxazolyl-isoquinolinones and methods for using them” (priority 2008, dated 2014).
Where a name gives a salt, the structure may show the parent alone.

Molecular target: T1, hrPARP-1 (human recombinant) (Homo sapiens, UniProt P09874)
T1 construct: purchased Trevigen
Test: Functional assessment of human PARP-1 enzymatic activity
Format: biochemical
Details: 1 U hrPARP-1, 15 μg/mL activated DNA, 5 μM NAD+, 20 min room temperature, fluorescence readout
Description: Functional Assessment of Human PARP-1 Enzymatic Activity
hrPARP-1 (human recombinant, Trevigen), Activated DNA (Sigma), 6(5H)-phenanthridinone (PND), (Sigma), NAD+ (Calbiochem), PARP-1 assay buffer (50 mM Tris, 2 mM MgCl2, pH 8.0), 20% acetophenone in EtOH, 2 M KOH 88% formic acid, 110° C. oven, Flexstation Plate Reader.
Compound plates were prepared by making a series of 1:3 dilutions for each tested compound, 10 steps of each at 20 μL in DMSO starting from a concentration of 5 mM. NAD^+ (39 μL of a 6.4 μM solution) were added to each well of a 96-well flat bottom fluorescent assay plate. Test compound (1 μL) was added to each well. To initiate the reaction, 10 μL of PARP (contains 5 U of PARP and 75 μg/mL activated DNA) was added with a final 1 U hrPARP-1, 15 μg/mL activated DNA and 5 μM of NAD^+. The highest concentration used for test compounds was 100 μM. The plates were incubated at room temperature on a shaker, After 20 min, 20 μL of 2 M KOH and 20 μL of 20% acetophenone were added. The plate was incubated 10 min. at 4° C., and 90 μL of 88% formic acid was added. After incubating in a 110° C. oven for 5 min, the plate was cooled to room temperature and read of a Flexstation Plate Reader (excitation at 360 nm, emission at 445 nm).
LSW data analysis software was used to generate PARP-1 IC50s.

T1 sequence (P09874 whole entry): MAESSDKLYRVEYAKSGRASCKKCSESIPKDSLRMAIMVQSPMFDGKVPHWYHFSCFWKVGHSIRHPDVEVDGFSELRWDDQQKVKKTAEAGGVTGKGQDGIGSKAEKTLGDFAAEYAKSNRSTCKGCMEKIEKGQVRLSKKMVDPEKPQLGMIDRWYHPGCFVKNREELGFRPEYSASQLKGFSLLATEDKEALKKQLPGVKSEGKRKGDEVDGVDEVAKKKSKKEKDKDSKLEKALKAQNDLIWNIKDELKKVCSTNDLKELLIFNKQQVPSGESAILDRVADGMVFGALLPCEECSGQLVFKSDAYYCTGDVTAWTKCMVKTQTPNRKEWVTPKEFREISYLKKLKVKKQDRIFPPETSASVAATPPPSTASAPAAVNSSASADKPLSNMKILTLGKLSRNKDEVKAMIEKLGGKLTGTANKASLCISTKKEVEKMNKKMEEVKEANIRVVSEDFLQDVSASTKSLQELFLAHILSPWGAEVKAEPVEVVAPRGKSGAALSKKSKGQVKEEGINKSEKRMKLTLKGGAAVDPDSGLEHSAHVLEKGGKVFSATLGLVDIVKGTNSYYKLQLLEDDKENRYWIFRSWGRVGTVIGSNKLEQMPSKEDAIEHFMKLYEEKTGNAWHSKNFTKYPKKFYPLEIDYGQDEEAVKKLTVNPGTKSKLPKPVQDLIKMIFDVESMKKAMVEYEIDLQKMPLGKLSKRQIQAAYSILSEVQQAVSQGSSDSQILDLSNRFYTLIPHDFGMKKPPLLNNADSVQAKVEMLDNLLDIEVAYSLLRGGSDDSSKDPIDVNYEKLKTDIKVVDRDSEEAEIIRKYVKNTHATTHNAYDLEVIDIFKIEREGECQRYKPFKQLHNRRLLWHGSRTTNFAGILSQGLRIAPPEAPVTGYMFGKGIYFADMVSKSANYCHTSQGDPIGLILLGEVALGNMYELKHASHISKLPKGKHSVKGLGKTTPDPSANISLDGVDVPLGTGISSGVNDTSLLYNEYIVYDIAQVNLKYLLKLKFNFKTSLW

Compound	IC50 [nM]
CN(C)CC#Cc1nc2c([nH]c(=O)c3ccccc32)s1 [Example 2, 2-[3-(Dimethylamino)prop-1-yn-1-yl][1,3]thiazolo[5,4-c]isoquinolin-5(4H)-one]	414
O=c1[nH]c2sc(CN3CCCCC3)nc2c2c(O)cccc12 [Example 6, 9-Hydroxy-2-(piperidin-1-ylmethyl)[1,3]thiazolo[5,4-c]isoquinolin-5(4H)-one]	1370
CN(C)Cc1nc2c([nH]c(=O)c3cccc(O)c32)s1 [Example 4, 2-((Dimethylamino)methyl)-9-hydroxythiazolo[5,4-c]isoquinolin-5(4H)-one]	99
CN(C)Cc1nc2c([nH]c(=O)c3ccccc32)s1 [Example 1, 2-[(Dimethylamino)methyl][1,3]thiazolo[5,4-c]isoquinolin-5(4H)-one hydrochloride]	378
O=c1[nH]c2sc(CN3CCOCC3)nc2c2c(O)cccc12 [Example 5, 9-Hydroxy-2-(morpholin-4-ylmethyl)[1,3]thiazolo[5,4-c]isoquinolin-5(4H)-one]	18.3
O=c1[nH]c2sc(CN3CCCC3)nc2c2c(O)cccc12 [Example 7, 9-Hydroxy-2-(pyrrolidin-1-ylmethyl)[1,3]thiazolo[5,4-c]isoquinolin-5(4H)-one]	111
CN(C)CCc1nc2c([nH]c(=O)c3ccccc32)s1 [Example 3, 2-(2-(Dimethylamino)ethyl)thiazolo[5,4-c]isoquinolin-5(4H)-one]	358

The next lines start with the values.

IC50 [nM]	Compound
1500	C[C@@H]1CCC[C@H](C)N1Cc1nc2c([nH]c(=O)c3cccc(O)c32)s1 [Example 13, 2-{[(2R,6S)-2,6-Dimethylpiperidin-1-yl]methyl}-9-hydroxy[1,3]thiazolo[5,4-c]isoquinolin-5(4H)-one]
3090	C[C@@H]1CN(Cc2nc3c([nH]c(=O)c4cccc(O)c43)s2)C[C@H](C)O1 [Example 10, 2-{[(2R,6S)-2,6-Dimethylmorpholin-4-yl]methyl}-9-hydroxy[1,3]thiazolo[5,4-c]isoquinolin-5(4H)-one]
747	CC1CCCN1Cc1nc2c([nH]c(=O)c3cccc(O)c32)s1 (stereo not shown) [Example 11, 9-Hydroxy-2-[(2-methylpyrrolidin-1-yl)methyl][1,3]thiazolo[5,4-c]isoquinolin-5(4H)-one]
2450	O=c1[nH]c2sc(CN3CCCC4CCCCC43)nc2c2c(O)cccc12 (stereo not shown) [Example 9, 9-Hydroxy-2-(octahydroquinolin-1(2H)-ylmethyl)[1,3]thiazolo[5,4-c]isoquinolin-5(4H)-one]
223	CN(C)[C@@H]1CCN(Cc2nc3c([nH]c(=O)c4cccc(O)c43)s2)C1 [Example 8, 2-{[(3R)-3-(dimethylamino)pyrrolidin-1-yl]methyl}-9-hydroxy[1,3]thiazolo[5,4-c]isoquinolin-5(4H)-one]
3500	O=c1[nH]c2sc(CN3CCC[C@@H]3C(F)(F)F)nc2c2c(O)cccc12 [Example 12, 9-Hydroxy-2-{[(2R)-2-(trifluoromethyl)pyrrolidin-1-yl]methyl}[1,3]thiazolo[5,4-c]isoquinolin-5(4H)-one]
